Consider 67 compounds from PubChem BioAssay AID1361 (SRMLSC, 2008).

Active and inactive are the calls of the source. How the calls were made is not given here.

The nature of this experiment: mitochondrial fusion inhibitors, confirmation, cell-based, chemical genetic, wild-type and mutant (AID 1361). As to conditions: Cell-based mitochondrial fusion phenotype, imaging.
The mark [1] stands for this setting: mutant cells, measured here: mutant cell line IC50.

Broadly, the IC50 is the concentration at which inhibition is half-maximal.

For `CCCCn1c(N2CCC(Cc3ccccc3)CC2)nc2c1c(=O)[nH]c(=O)n2C`, the IC50 is, setting by setting: (WT cells) 13.7 µM; under setting [1], above 25 µM.
`CN(C)c1ccc(O)c2c1CC1CC3[C@@H](N(C)C)C(=O)C(C(N)=O)=C(O)[C@]3(O)C(=O)C1=C2O` (some centres undefined): the IC50 (WT cells) is > 25 µM (inactive) and the IC50 under setting [1] was above 25 µM.
In the same order, the values of `CCOc1ccc(S(=O)(=O)N2CCN(C(=O)c3cc4c(s3)CCCC4)CC2)cc1` are 4.98 µM and above 25 µM.
The corresponding values for `CCOC(=O)C1=C(NC(=S)NC(=O)c2ccccc2)c2ccccc2CC1(C)CC` (centres undefined) are 7.33 µM and above 25 µM.
The corresponding values for `CCCCCCP(=O)(O)c1ccccc1` are > 25 µM (inactive) and above 25 µM.
For `COc1ccc(NS(=O)(=O)c2ccc3oc(Nc4ccc5c(c4)OCCO5)nc3c2)cc1`, the 50% inhibitory concentration (IC50) (WT cells) is 17.6 µM and the half-inhibitory concentration (IC50) under setting [1] is above 25 µM.
In the same order, the values of `CSC(=S)N/N=C/c1c[nH]c2ccccc12` are 7.53 µM and 11.2 µM.
For the compound `O=c1cc(-c2ccc(C3CCCCC3)cc2)[nH][nH]1`, the IC50 is, setting by setting: (WT cells) > 25 µM (inactive); under setting [1], above 25 µM.
In the same order, the values of `CN(CC(=O)Nc1ccccc1Sc1ccccc1)C1CCCCC1` are 23.2 µM and above 25 µM.
`COc1ccc(NS(=O)(=O)c2cc(C(=O)O)ccc2C)cc1`: the IC50 by setting is: (WT cells) > 25 µM (inactive); under setting [1], above 25 µM.
Turning to `COc1ccc(-c2cc3nc(C)cc(N4CC(C)CC(C)C4)n3n2)cc1` (centres undefined), the IC50 (WT cells) was 17.8 µM and the IC50 under setting [1] amounted to 19.4 µM.
In the same order, the values of `CNC(=S)N/N=C/c1cccc(OCc2ccccc2F)c1` are > 25 µM (inactive) and above 25 µM.
In the case of `CCCn1c(CN(Cc2ccccc2)Cc2ccccc2)nc2c1c(=O)n(C)c(=O)n2C`, the 50% inhibitory concentration (IC50) is 20.6 µM (WT cells) and above 25 µM under setting [1].
In the case of `Cc1nc(C)c(-c2csc(Nc3cccc(O)c3)n2)s1`, the IC50 is > 25 µM (inactive) (WT cells) and above 25 µM under setting [1].
Turning to `O=C(CN1CCc2ccccc2C1)Nc1ccccc1N1CCCCCC1`, the IC50 runs as follows: (WT cells) 10.3 µM; under setting [1], above 25 µM.
On to `COc1ccc(NC(=S)N(CCCN2CCCC2)Cc2cccn2Cc2ccc(Cl)cc2)cc1Cl`, for which the IC50 was 10.9 µM (WT cells) and 23.2 µM under setting [1].
As to `COc1ccc(-c2nnc(SCC(=O)c3cccs3)o2)c(OC)c1`, the IC50 (WT cells) is > 25 µM (inactive) and the IC50 under setting [1] is above 25 µM.
In the same order, the values of `Cc1ccc(Cn2nc3c(cc2=O)CCc2ccccc2-3)cc1` are > 25 µM (inactive) and above 25 µM.
In the same order, the values of `O=C1CC(C(=O)NCc2ccccc2)C2(CCCC2)O1` (centres undefined) are > 25 µM (inactive) and above 25 µM.
In the same order, the values of `O=C(NCc1ccccn1)C(=O)Nc1nc(C23CC4CC(CC(C4)C2)C3)cs1` are 15 µM and above 25 µM.
With `O=C(Nn1c(C2CCCCC2)nc2ccccc2c1=O)c1ccc(Cl)c([N+](=O)[O-])c1`, the IC50 reads like this: (WT cells) 14.8 µM; under setting [1], above 25 µM.
The corresponding values for `O=C(C1CCCCC1)N(Cc1ccccc1)c1ccccn1` are > 25 µM (inactive) and above 25 µM.
For the compound `O/N=C(\c1ccc(Cl)cc1Cl)c1ncc(C(F)(F)F)cc1Cl`, the IC50 (WT cells) is 20.9 µM and the half-inhibitory concentration (IC50) under setting [1] is above 25 µM.
Take `CC(C)N1C(=O)/C(=C\c2nc3ccccc3c(=O)n2-c2ccccc2)c2ccccc21`: the IC50 is 18.8 µM (WT cells) and above 25 µM under setting [1].
In the same order, the values of `COC(=O)[C@H](Cc1ccccc1)NC(=O)O[C@H]1C(=O)c2ccc(OC)cc2O[C@@H]1c1ccc2c(c1)OCO2` are 12.9 µM and above 25 µM.
In the same order, the values of `COC(=O)CNC(=O)CNC(=O)c1nn(-c2ccc(OC)c(Cl)c2)c(=O)c2ccccc12` are > 25 µM (inactive) and above 25 µM.
The corresponding values for `Cc1ccc(C)c(N2CCN(C(=O)C3CCCCN3S(=O)(=O)c3ccc(F)cc3)CC2)c1` (centres undefined) are 18.3 µM and above 25 µM.
Regarding `CC(C)(C)c1ccc(S(=O)(=O)Nc2ccc(Cc3ccncc3)cc2)cc1`, the IC50 is 23.3 µM (WT cells) and above 25 µM under setting [1].
Consider `Clc1ccc(-c2csc3ncnc(N4CCc5ccccc5C4)c23)cc1`, for which the IC50 reads like this: (WT cells) 10 µM; under setting [1], above 25 µM.
The corresponding values for `CCC(C)c1ccccc1NC(=O)COC(=O)c1ccc2[nH]c3c(c2c1)CCCC3` (centres undefined) are 9.98 µM and above 25 µM.
For the compound `COc1ccccc1N1CCN(C(=O)c2ccc(CSc3ccccc3)cc2)CC1`, the IC50 (WT cells) is 15.4 µM and the IC50 under setting [1] is above 25 µM.
Take `COc1cc(CNn2cn[nH]c2=S)cc(Cl)c1OCc1ccc(F)cc1`: the IC50 by setting is: (WT cells) 21.2 µM; under setting [1], above 25 µM.
In the case of `CCCCOC(=O)c1ccc(NC(=O)c2ccccc2OC)cc1`, the IC50 by setting is: (WT cells) > 25 µM (inactive); under setting [1], above 25 µM.
The corresponding values for `COc1ccccc1NC(=O)COC(=O)c1ccc([N+](=O)[O-])s1` are 6.09 µM and 19.4 µM.
In the same order, the values of `CC(C)(C)n1nnnc1C(c1ccc(Cl)cc1)N(Cc1cccnc1)Cc1ccco1` (centres undefined) are > 25 µM (inactive) and above 25 µM.
Turning to `O=C(NCc1ccco1)c1cccnc1-c1nc2ccccc2s1`, the IC50 by setting is: (WT cells) > 25 µM (inactive); under setting [1], above 25 µM.
In the same order, the values of `Cc1oc(-c2ccccc2Cl)nc1CN1C(=O)CN=C(c2ccccc2)c2ccccc21` are 20.5 µM and above 25 µM.
In the same order, the values of `O=[N+]([O-])c1ccc(/C=N/Nc2nc(N3CCCCCC3)nc(N3CCCCCC3)n2)o1` are 8.58 µM and above 25 µM.
With `COC(=O)c1ccc(C2C3=C(Nc4nnnn42)c2ccccc2OC3)cc1` (centres undefined), the IC50 is, setting by setting: (WT cells) > 25 µM (inactive); under setting [1], above 25 µM.
In the same order, the values of `O=C(N/N=C/c1cccc(F)c1)c1cc(-c2ccco2)nc2ccccc12` are > 25 µM (inactive) and above 25 µM.
In the case of `CC12CCC3C(CC=C4CC(O)CCC43C)C1C/C(=C\c1ccccc1F)C2=O` (centres undefined), the IC50 by setting is: (WT cells) 9.36 µM; under setting [1], above 25 µM.
Consider `COC(=O)C1=C(O)/C(=C\c2ccc(CNC(=O)C(=O)Nc3ccc(C)cc3)o2)N=C1C`, for which the IC50 (WT cells) was > 25 µM (inactive) and the IC50 under setting [1] was above 25 µM.
Consider `CC(NC(=O)COc1ccccc1-c1ccccc1)c1ccccc1` (centres undefined), for which the IC50 is, setting by setting: (WT cells) 15 µM; under setting [1], above 25 µM.
The corresponding values for `COc1ccc(-n2cc(-c3ccccc3)c3c(N4CC(C)OC(C)C4)ncnc32)cc1` (centres undefined) are 21.5 µM and above 25 µM.
In the case of `CC(C)(C)[C@H]1C=C(C(=O)N2CCN(Cc3ccc4c(c3)OCO4)CC2)O[C@@H](OCc2ccc(CO)cc2)C1`, the IC50 is, setting by setting: (WT cells) 10 µM; under setting [1], above 25 µM.
The corresponding values for `CCOc1ccc(NC(=O)CSc2nnc(-c3ccco3)n2C)cc1` are > 25 µM (inactive) and above 25 µM.
`O=C(N/N=C/c1c[nH]c2ccccc12)C1CC1(c1ccccc1)c1ccccc1` (centres undefined): the IC50 was > 25 µM (inactive) (WT cells) and above 25 µM under setting [1].
The corresponding values for `CCc1cccc(CC)c1NC(=S)NCCc1c(C)[nH]c2ccccc12` are 19.8 µM and above 25 µM.
The corresponding values for `Cc1cccc(N(C)C(=S)Oc2ccc3ccccc3c2)c1` are 8.79 µM and above 25 µM.
The corresponding values for `CCCCN1C(=O)NC(=O)C2(Cc3c(nc4c(C)cccn4c3=O)N3CCc4ccccc4C32)C1=O` (centres undefined) are 11.9 µM and above 25 µM.
On to `CS(=O)(=O)N(Cc1cc2ccccc2[nH]c1=O)C1CCCCC1`, for which the IC50 reads like this: (WT cells) > 25 µM (inactive); under setting [1], above 25 µM.
For the compound `CN(C)C(=O)CSc1nnc(CCCCCNC(=O)OC(C)(C)C)o1`, the IC50 by setting is: (WT cells) > 25 µM (inactive); under setting [1], above 25 µM.
The corresponding values for `Cc1ccc(-c2cc(C(F)F)n3ncc(C(=O)N4CCN5CCCC5C4)c3n2)cc1` (centres undefined) are > 25 µM (inactive) and above 25 µM.
For the compound `Cc1ccc(C(C)C)cc1OCC(=O)N/N=C/c1ccc2c(c1)OCCO2`, the IC50 is, setting by setting: (WT cells) 18.3 µM; under setting [1], above 25 µM.
`O=C(CCc1nc(-c2ccccc2)no1)NCCc1ccccc1`: the IC50 is > 25 µM (inactive) (WT cells) and above 25 µM under setting [1].
The corresponding values for `CCN1CCN(CCNC(=O)c2ccc(/C=C3/Sc4ccccc4N(Cc4ccccc4C)C3=O)cc2)CC1` are 15.5 µM and above 25 µM.
In the same order, the values of `COc1cccc(CNC(=O)CNC(=S)N(Cc2ccccc2)Cc2ccccc2F)c1` are 23.1 µM and above 25 µM.
On to `O=C(CNC(=S)N(Cc1ccccc1)Cc1ccccc1F)NCCc1ccccc1`, for which the IC50 (WT cells) was 20.1 µM and the IC50 under setting [1] was above 25 µM.
The corresponding values for `FC(F)(F)c1cnc(Sc2nc3nccc(-c4ccc(Cl)cc4)n3n2)c(Cl)c1` are > 25 µM (inactive) and above 25 µM.
The corresponding values for `CC(C)(C)c1ccc(CN2N=C(/C=C/c3ccccc3)CCC2=O)cc1` are 11.3 µM and above 25 µM.
In the same order, the values of `Cc1ccc(-c2cc(C(F)F)n3ncc(C(=O)Nc4c(C)nn(Cc5ccccc5Cl)c4C)c3n2)cc1` are 16.2 µM and above 25 µM.
For `COc1ccc(OC)c(NC(=O)COC(=O)Cc2ccc(Br)cc2)c1`, the IC50 was > 25 µM (inactive) (WT cells) and above 25 µM under setting [1].
`CCC(C)c1ccc(NC(=O)COc2c(F)c(F)c(C(F)(F)F)c(F)c2F)cc1` (centres undefined): the IC50 reads like this: (WT cells) 8.03 µM; under setting [1], above 25 µM.
Turning to `Cc1cc(=O)oc(C)c1C(=O)Nc1ccc2nsnc2c1`, the IC50 was > 25 µM (inactive) (WT cells) and above 25 µM under setting [1].
Take `Cc1c(N2C(=O)c3cccc4cccc(c34)C2=O)c(=O)n(-c2ccccc2)n1C`: the IC50 is, setting by setting: (WT cells) > 25 µM (inactive); under setting [1], above 25 µM.
In the same order, the values of `CCOc1ccc(-c2[nH]ncc2Oc2ccccc2OCC)c(O)c1` are > 25 µM (inactive) and above 25 µM.
With `O=C(O)C1C2C=CC(C2)C1C(=O)Nc1ccc(C(=O)N2CCCCC2)cc1` (centres undefined), the IC50 reads like this: (WT cells) > 25 µM (inactive); under setting [1], above 25 µM.
